What was measured:
HepG2 cells = test: Quantification of the secretion of ApoB; assay type: cell-based; conditions: Homo sapiens, HepG2, 24 h, 24 hours of incubation, pIC50 = -log IC50
Protocol: HepG2 cells were cultured in 24-well plates in MEM Rega 3 containing 10% fetal calf serum. At 70% confluency, the medium was changed and the test compound or carrier (DMSO, 0.4% final concentration) was added. After 24 hours of incubation, the medium was transferred to Eppendorf tubes and cleared by centrifugation. A sheep antibody directed against either apoB was added to the supernatant and the mixture was kept at 8° C. for 24 hours. Then, rabbit anti-sheep antibody was added and the immune complex was allowed to precipitate for 24 hours at 8° C. The immunoprecipitate was pelleted by centrifugation for 25 minutes at 1320 g and washed twice with a buffer containing 40 mM Mops, 40 mM NaH2PO4, 100 mM NaF, 0.2 mM DTT, 5 mM EDTA, 5 mM EGTA, 1% Triton-X-100, 0.5% sodium deoxycholate (DOC), 0.1% SDS, 0.2 μM leupeptin and 0.2 μM PMSF. Radioactivity in the pellet was quantified by liquid scintillation counting. The IC50 values are usually converted to pIC50 values (=−log IC50 value) for ease of use.

MTP = MTP (Homo sapiens, UniProt P55157); test: MTP assay (triglyceride transfer from donor to acceptor vesicles); assay type: biochemical; conditions: MTP activity, percent triglyceride transfer from donor to acceptor vesicles, 37° C.
Summary of the method: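 Radiolabelled triglyceride transfer from donor vesicles (phosphatidylcholine, 7.5 mol % cardiolipin, 0.25 mol % glycerol tri[1-^14C]-oleate) to phosphatidylcholine acceptor vesicles with BSA, pH 7.5 Tris buffer; compounds in DMSO (0.13% final), 5 min preincubation at 37° C before MTP addition. Donor vesicles removed on DEAE-52; acceptor-supernatant ^14C counts give percent transfer.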

Sequence of MTP (P55157 19-894, species assumed): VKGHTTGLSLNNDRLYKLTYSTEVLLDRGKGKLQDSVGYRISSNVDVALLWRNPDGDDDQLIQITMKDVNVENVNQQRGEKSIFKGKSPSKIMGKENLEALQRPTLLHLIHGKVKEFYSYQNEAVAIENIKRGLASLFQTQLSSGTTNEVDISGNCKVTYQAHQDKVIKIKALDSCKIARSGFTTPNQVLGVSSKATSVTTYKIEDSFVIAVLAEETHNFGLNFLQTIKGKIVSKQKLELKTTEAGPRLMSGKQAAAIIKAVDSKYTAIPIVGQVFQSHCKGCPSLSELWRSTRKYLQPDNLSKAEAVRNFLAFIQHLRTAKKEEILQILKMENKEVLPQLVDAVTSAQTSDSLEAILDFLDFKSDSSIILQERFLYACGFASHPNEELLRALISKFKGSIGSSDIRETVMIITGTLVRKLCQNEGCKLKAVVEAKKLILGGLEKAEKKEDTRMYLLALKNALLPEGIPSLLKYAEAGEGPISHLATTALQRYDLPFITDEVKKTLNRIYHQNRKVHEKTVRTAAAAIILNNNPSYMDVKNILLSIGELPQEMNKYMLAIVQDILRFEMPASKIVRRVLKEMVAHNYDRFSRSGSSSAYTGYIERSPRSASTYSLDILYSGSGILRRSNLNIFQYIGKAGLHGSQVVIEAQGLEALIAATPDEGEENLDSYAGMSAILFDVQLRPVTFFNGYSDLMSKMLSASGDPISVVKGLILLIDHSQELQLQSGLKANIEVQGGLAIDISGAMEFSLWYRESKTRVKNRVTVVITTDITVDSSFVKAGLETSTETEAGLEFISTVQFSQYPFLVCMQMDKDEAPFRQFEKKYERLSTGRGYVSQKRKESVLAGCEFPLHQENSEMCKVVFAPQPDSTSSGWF
Sequence of MTP (P07237 18-508 partner, species assumed): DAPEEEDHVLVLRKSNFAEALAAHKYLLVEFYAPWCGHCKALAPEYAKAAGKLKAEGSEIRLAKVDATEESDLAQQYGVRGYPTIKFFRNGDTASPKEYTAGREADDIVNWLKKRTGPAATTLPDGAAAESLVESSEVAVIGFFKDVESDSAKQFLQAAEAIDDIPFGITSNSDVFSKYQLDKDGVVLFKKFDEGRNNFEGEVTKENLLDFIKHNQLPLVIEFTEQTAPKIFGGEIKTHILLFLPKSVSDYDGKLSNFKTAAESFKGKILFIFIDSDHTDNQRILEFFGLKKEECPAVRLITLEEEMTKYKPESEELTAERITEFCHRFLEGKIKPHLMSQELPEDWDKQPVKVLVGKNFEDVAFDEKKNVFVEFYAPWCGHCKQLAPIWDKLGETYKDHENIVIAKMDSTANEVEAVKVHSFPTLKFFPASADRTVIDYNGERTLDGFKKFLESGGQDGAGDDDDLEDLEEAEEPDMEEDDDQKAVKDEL

Structure (SMILES) | IC50 (HepG2 cells) [nM] | IC50 (MTP) [nM]
CCOC(=O)C[C@H](NC(=O)[C@@]1(c2ccccc2)CC[C@H](C(=O)N2CCC(NC(=O)c3ccccc3OC)CC2)c2ccccc21)C(=O)OC [Co. No. 73] | > 1000 | > 100
CCOC(=O)CC[C@H](NC(=O)[C@@]1(c2ccccc2)CC[C@H](C(=O)N2CCC(NC(=O)c3ccccc3OC)CC2)c2ccccc21)C(=O)OCC [Co. No. 74] | > 1000 | 5.08
COC(=O)[C@H](CCCCNC(=O)OC(C)(C)C)NC(=O)[C@@]1(c2ccccc2)CC[C@H](C(=O)N2CCC(NC(=O)c3ccccc3OC)CC2)c2ccccc21 [Co. No. 75] | 20.2 | 2.24
CCOC(=O)[C@H](NC(=O)[C@@]1(c2ccccc2)CC[C@H](C(=O)N2CCC(NC(=O)c3ccccc3OC)CC2)c2ccccc21)c1ccccc1 [Co. No. 79] | 128 | 33.3
CCOC(=O)[C@@H](NC(=O)[C@@]1(c2ccccc2)CC[C@H](C(=O)N2CCC(NC(=O)c3ccccc3OC)CC2)c2ccccc21)c1ccccc1 [Co. No. 80] | 548 | 70.1
CCOC(=O)[C@H](Cc1ccccc1)NC(=O)[C@@]1(c2ccccc2)CC[C@H](C(=O)N2CCC(NC(=O)c3ccccc3OC)CC2)c2ccccc21 [Co. No. 81] | > 1000 | 12.6
CCOC(=O)[C@@H](Cc1ccccc1)NC(=O)[C@@]1(c2ccccc2)CC[C@H](C(=O)N2CCC(NC(=O)c3ccccc3OC)CC2)c2ccccc21 [Co. No. 82] | 289 | 12.9
CCOC(=O)C1CCCCN1C(=O)[C@@]1(c2ccccc2)CC[C@H](C(=O)N2CCC(NC(=O)c3ccccc3OC)CC2)c2ccccc21 (some centres unmarked) [Co. No. 83] | 670 | 71.4
CCOC(=O)C1CCCN(C(=O)[C@@]2(c3ccccc3)CC[C@H](C(=O)N3CCC(NC(=O)c4ccccc4OC)CC3)c3ccccc32)C1 (some centres unmarked) [Co. No. 84] | > 1000 | 228
CCOC(=O)C(Cc1ccc(O)cc1)NC(=O)[C@@]1(c2ccccc2)CC[C@H](C(=O)N2CCC(NC(=O)c3ccccc3OC)CC2)c2ccccc21 (some centres unmarked) [Co. No. 85] | > 1000 | > 100
CCOC(=O)C(Cc1c[nH]c2ccccc12)NC(=O)[C@@]1(c2ccccc2)CC[C@H](C(=O)N2CCC(NC(=O)c3ccccc3OC)CC2)c2ccccc21 (some centres unmarked) [Co. No. 86] | 653 | 66.5
COc1ccccc1C(=O)NC1CCN(C(=O)[C@H]2CC[C@@](C(=O)NCCC(=O)OC(C)(C)C)(c3ccccc3)c3ccccc32)CC1 [Co. No. 88] | 20.6 | 2.15
COc1ccccc1C(=O)NC1CCN(C(=O)[C@H]2CC[C@@](C(=O)NCCC(=O)O)(c3ccccc3)c3ccccc32)CC1 [Co. No. 90] | > 1000 | 2130
COc1ccccc1C(=O)NC1CCN(C(=O)[C@H]2CC[C@@](C(=O)N[C@H](Cc3ccccc3)C(=O)OC(C)(C)C)(c3ccccc3)c3ccccc32)CC1 [Co. No. 96] | 512 | 38.2
COc1ccccc1C(=O)NC1CCN(C(=O)[C@H]2CC[C@@](C(=O)N[C@H](C(=O)OC(C)(C)C)C(C)C)(c3ccccc3)c3ccccc32)CC1 [Co. No. 102] | 168 | 13.6
COc1ccccc1C(=O)NC1CCN(C(=O)[C@H]2CC[C@@](C(=O)N[C@@H](C(=O)OC(C)(C)C)C(C)C)(c3ccccc3)c3ccccc32)CC1 [Co. No. 103] | 382 | 61
COc1ccccc1C(=O)NC1CCN(C(=O)[C@H]2CC[C@@](C(=O)N[C@@H](CC(C)C)C(=O)OC(C)(C)C)(c3ccccc3)c3ccccc32)CC1 [Co. No. 104] | 171 | 21.6
COc1ccccc1C(=O)NC1CCN(C(=O)[C@H]2CC[C@@](C(=O)N[C@@H](COC(C)(C)C)C(=O)OC(C)(C)C)(c3ccccc3)c3ccccc32)CC1 [Co. No. 105] | 271 | 48.8
COc1ccccc1C(=O)NC1CCN(C(=O)[C@H]2CC[C@@](C(=O)N[C@@H](CC(=O)OC(C)(C)C)C(=O)OC(C)(C)C)(c3ccccc3)c3ccccc32)CC1 [Co. No. 106] | 185 | 16.1
COc1ccccc1C(=O)NC1CCN(C(=O)[C@H]2CC[C@@](C(=O)N[C@@H](CCC(N)=O)C(=O)OC(C)(C)C)(c3ccccc3)c3ccccc32)CC1 [Co. No. 107] | > 1000 | > 100
COc1ccccc1C(=O)NC1CCN(C(=O)[C@H]2CC[C@@](C(=O)N[C@@H](CCC(=O)OC(C)(C)C)C(=O)OC(C)(C)C)(c3ccccc3)c3ccccc32)CC1 [Co. No. 108] | 74.8 | 9.18
COc1ccccc1C(=O)NC1CCN(C(=O)[C@H]2CC[C@@](C(=O)N[C@@H](CCCCNC(=O)OC(C)(C)C)C(=O)OC(C)(C)C)(c3ccccc3)c3ccccc32)CC1 [Co. No. 109] | 2.77 | 2.43

Structure (SMILES) | IC50 (HepG2 cells) [nM] | IC50 (MTP) [nM]
COc1ccccc1C(=O)NC1CCN(C(=O)[C@H]2CC[C@@](C(=O)N3CCC[C@H]3C(=O)OC(C)(C)C)(c3ccccc3)c3ccccc32)CC1 [Co. No. 110] | 245 | > 100
COc1ccccc1C(=O)NC1CCN(C(=O)[C@H]2CC[C@@](C(=O)N[C@@H](Cc3ccccc3)C(=O)OC(C)(C)C)(c3ccccc3)c3ccccc32)CC1 [Co. No. 112] | 136 | 18
COc1ccccc1C(=O)NC1CCN(C(=O)[C@H]2CC[C@@](C(=O)N[C@@H](CC(=O)O)C(=O)O)(c3ccccc3)c3ccccc32)CC1 [Co. No. 121] | > 1000 | > 10000
CCOC(=O)CCNC(=O)[C@@]1(c2ccccc2)CC[C@H](C(=O)N2CCC(NC(=O)c3ccccc3OC)CC2)c2ccccc21 [Co. No. 129] | 4.36 | 1.77
COC(=O)CCNC(=O)[C@@]1(c2ccccc2)CC[C@H](C(=O)N2CCC(NC(=O)c3cccn(C)c3=O)CC2)c2ccccc21 [Co. No. 138] | > 1000 | 596
COC(=O)[C@H](CCCCNC(=O)OC(C)(C)C)NC(=O)[C@@]1(c2ccccc2)CC[C@H](C(=O)N2CCC(NC(=O)c3cccn(C)c3=O)CC2)c2ccccc21 [Co. No. 148] | > 1000 | 131
CCOC(=O)CCNC(=O)[C@@]1(c2ccccc2)CC[C@H](C(=O)N2CCC(NC(=O)c3cccn(C)c3=O)CC2)c2ccccc21 [Co. No. 159] | > 1000 | 129
Cn1cccc(C(=O)NC2CCN(C(=O)[C@H]3CC[C@@](C(=O)NCCC(=O)OC(C)(C)C)(c4ccccc4)c4ccccc43)CC2)c1=O [Co. No. 164] | > 1000 | 65.2
Cn1cccc(C(=O)NC2CCN(C(=O)[C@H]3CC[C@@](C(=O)N[C@@H](CCCCNC(=O)OC(C)(C)C)C(=O)OC(C)(C)C)(c4ccccc4)c4ccccc43)CC2)c1=O [Co. No. 172] | > 1000 | 33.6
COc1ccccc1C(=O)NC1CCN(C(=O)[C@H]2CC[C@@](C(=O)NCCC(=O)OC(C)C)(c3ccccc3)c3ccccc32)CC1 [Co. No. 199] | 7.36 | 1.32
CCOC(=O)CC(C)NC(=O)[C@@]1(c2ccccc2)CC[C@H](C(=O)N2CCC(NC(=O)c3ccccc3OC)CC2)c2ccccc21 (some centres unmarked) [Co. No. 200] | 255 | 6.79
COC(=O)CCCNC(=O)[C@@]1(c2ccccc2)CC[C@H](C(=O)N2CCC(NC(=O)c3ccccc3OC)CC2)c2ccccc21 [Co. No. 201] | > 1000 | 7.76
CCOC(=O)CCCNC(=O)[C@@]1(c2ccccc2)CC[C@H](C(=O)N2CCC(NC(=O)c3ccccc3OC)CC2)c2ccccc21 [Co. No. 202] | 793 | 3.16
COc1ccccc1C(=O)NC1CCN(C(=O)[C@H]2CC[C@@](C(=O)NCCCC(=O)OC(C)(C)C)(c3ccccc3)c3ccccc32)CC1 [Co. No. 203] | 30 | 2.05
COC(=O)CCCCNC(=O)[C@@]1(c2ccccc2)CC[C@H](C(=O)N2CCC(NC(=O)c3ccccc3OC)CC2)c2ccccc21 [Co. No. 204] | > 1000 | 58.7
CCOC(=O)CCCCNC(=O)[C@@]1(c2ccccc2)CC[C@H](C(=O)N2CCC(NC(=O)c3ccccc3OC)CC2)c2ccccc21 [Co. No. 205] | 75.5 | 5.45
COc1ccccc1C(=O)NC1CCN(C(=O)[C@H]2CC[C@@](C(=O)NCCCCC(=O)OC(C)C)(c3ccccc3)c3ccccc32)CC1 [Co. No. 206] | 42.4 | 2.96
COC(=O)CCCCCNC(=O)[C@@]1(c2ccccc2)CC[C@H](C(=O)N2CCC(NC(=O)c3ccccc3OC)CC2)c2ccccc21 [Co. No. 207] | > 1000 | 2.59
COc1ccccc1C(=O)NC1CCN(C(=O)[C@H]2CC[C@@](C(=O)NCCCCCC(=O)OC(C)C)(c3ccccc3)c3ccccc32)CC1 [Co. No. 208] | 57.7 | 1.86
COc1ccccc1C(=O)NC1CCN(C(=O)[C@H]2CC[C@@](C(=O)NCCCCCC(=O)OC(C)(C)C)(c3ccccc3)c3ccccc32)CC1 [Co. No. 209] | > 1000 | 36.2
CCOC(=O)[C@H](CCCCNC(=O)OC(C)(C)C)NC(=O)[C@@]1(c2ccccc2)CC[C@H](C(=O)N2CCC(NC(=O)c3ccccc3OC)CC2)c2ccccc21 [Co. No. 210] | 8.67 | 2.95
